Our source for the IC50 values is patent publication US20170152258A9, “Substituted Pyridopyrazines as Syk Inhibitors” (HUTCHISON MEDIPHARMA LIMITED, priority 2012, published 2017).

As a reminder, the IC50 is the concentration that inhibits the measured activity by half. A low value points to higher potency.

In one test the test system is RBL-2H3 cells. Kind of test: IgE-induced Beta-hexosaminidase secretion in RBL-2H3 cells. Format: cell-based. Particulars: Rattus norvegicus, RBL-2H3, IgE-induced Beta-hexosaminidase secretion, DNP-BSA stimulation. The protocol:
For the determination of IgE-induced Beta-hexosaminidase secretion, RBL-2H3 cells (SIBS) are seeded in 96 well plates at 4×10^4 cells per well and incubated in MEM media with 15% FBS and Glutamine ([…]) for 4 hours and sensitized with 0.5 ug/ml of SPE-7 overnight. Cells are washed 3 times with Tyrode's buffer and incubated in the presence or absence of various concentrations of the testing compound for 20 min at 37° C., 5% CO2. Cells are stimulated by adding 10 uL of DNP-BSA solution (150 ng/mL) to each well and incubating for 45 minutes at 37° C., 5% CO2. Then, 45 μL of the supernatant is taken and incubated with 100 μL of 1 mM 4-Nitrophenyl N-acetyl-β-D-glucosaminide (Sigma, Cat. No. N9376), which is diluted in 0.05 M citrate buffer (pH 4.5), for 1.5 hr at 37° C. The reactions are quenched by adding 185 μL of 0.05 M sodium carbonate buffer (pH 10.0). Plates are read at 405 nm on Multiskan (MK 3).

A further test addresses Syk kinase (Homo sapiens, UniProt P43405). Kind of test: SYK Enzymatic Assay (Z-LYTE Tyr 2 peptide). The format is biochemical. The conditions noted are these: 8 concentrations 1 μM down to 0.0003 μM. The protocol: Syk kinase assay are performed in vitro using Kit-Tyr 2 Peptide (Invitrogen, Cat. No. PV3191) and in a 384-well assay plate. […] The 384-well assay plate (Corning, Cat. No. 3575) is mixed and incubated at room temperature for 1 hour. 10 μL of the Development Solution (prepared by diluting Development Reagent A (Cat. No. PV3297) to 1/32 with Development Buffer (Cat. No. PV3127)) is then added to each well, mixed and incubated at room temperature for another 1 hour. The reactions are then stopped by adding 10 μL of the Stop Reagent (Invitrogen, Cat. No. PV3094), and the plate is read with Wallac 1420 VICTOR^3 Multilabel Counter (PerkinElmer™) at 445 nm and 520 nm fluorescence. All compounds are tested at 8 concentrations (1 μM down to 0.0003 μM) using a 1:3 serial dilution scheme.

In the case of `CC1(C)OCCc2cc(-c3cc4nccnc4c(OC[C@@H]4CN(C(N)=O)CCO4)n3)ccc21` [Compound 301], the IC50 in the test on RBL-2H3 cells turned out to be 107 nM; against Syk kinase, 24 nM.

Take `CCc1ccc(-c2cc3nccnc3c(OC[C@@H]3CN(C(=O)NC)CCO3)n2)cc1` [Compound 222]: the IC50 with RBL-2H3 cells amounted to 105 nM; on Syk kinase, 84 nM.

Regarding `Cn1ccc2cc(-c3cc4nccnc4c(OC[C@@H]4CN(S(C)(=O)=O)CCO4)n3)ccc21` [Compound 39], the IC50 was found to be 76 nM in the test on RBL-2H3 cells and 33 nM at Syk kinase.

Consider `CNc1ccc(-c2cc3nccnc3c(OC[C@@H]3CN(S(C)(=O)=O)CCO3)n2)cc1F` [Compound 52], for which the IC50 came to 47 nM with RBL-2H3 cells and 42 nM at Syk kinase.

Take `CS(=O)(=O)N1CCO[C@H](COc2nc(-c3ccc(C4CCN(CCO)CC4)cc3)cc3nccnc23)C1` [Compound 58, (S)-2-(4-(4-(5-((4-(methylsulfonyl)morpholin-2-yl)methoxy)pyrido[3,4-b]pyrazin-7-yl)phenyl)piperidin-1-yl)ethanol]: the IC50 worked out at 990 nM in the test on RBL-2H3 cells and 31 nM against Syk kinase.

As to `CS(=O)(=O)N1CCO[C@H](COc2nc(-c3ccc(N4CCNCC4)cc3)cc3nccnc23)C1` [Compound 14], the values for the 50% inhibitory concentration (IC50) in the test with RBL-2H3 cells and on Syk kinase were 631 nM and 25 nM, respectively.

As for `Cc1cc(-c2cc3nccnc3c(OC[C@@H]3CN(S(N)(=O)=O)CCO3)n2)ccc1N(C)C` [Compound 188], the results for the IC50 in the test with RBL-2H3 cells and against Syk kinase were 39 nM and 11 nM, respectively.

On to `CCN(CC)c1ccc(-c2cc3nccnc3c(OC[C@@H]3CN(C(C)=O)CCO3)n2)cc1` [Compound 131], for which the IC50 is 39 nM in the test with RBL-2H3 cells and 28 nM against Syk kinase.

Regarding `CN1CCC(c2ccc(-c3cc4nccnc4c(OC[C@@H]4CN(S(C)(=O)=O)CCO4)n3)cc2)CC1` [Compound 8], the IC50 stood at 113 nM in the test on RBL-2H3 cells and 48 nM at Syk kinase.

In the case of `CN(C)c1ccc(-c2cc3nccnc3c(OC[C@@H]3CN(C(=O)CC4CC4)CCO3)n2)cc1` [Compound 70], the IC50 in the test with RBL-2H3 cells was found to be 213 nM; against Syk kinase, 99 nM.

Regarding `Cc1cc(-c2cc3nccnc3c(O[C@@H]3CCOC3)n2)ccc1N1CCN(S(C)(=O)=O)CC1` [Compound 210], the IC50 worked out at 32 nM in the test on RBL-2H3 cells and 30 nM on Syk kinase.

Turning to `CC(=O)N1CCO[C@H](COc2nc(-c3ccc(C(C)(C)CN)cc3)cc3nccnc23)C1` [Compound 267], the IC50 stood at 1260 nM in the test on RBL-2H3 cells and 477 nM against Syk kinase.

As to `CC(=O)N1CCO[C@H](COc2nc(-c3ccc4c(c3)COC4(C)C)cc3nccnc23)C1` [Compound 297], the IC50 in the test on RBL-2H3 cells was determined as 88 nM; against Syk kinase, 58 nM.

Consider `NS(=O)(=O)N1CCO[C@H](COc2nc(-c3ccc(N4CCOCC4)cc3)cc3nccnc23)C1` [Compound 62], for which the IC50 amounted to 97 nM in the test with RBL-2H3 cells and 24 nM at Syk kinase.

In the case of `CNC(=O)N1CCO[C@H](COc2nc(-c3ccc(N(C)C)cc3)cc3nccnc23)C1` [Compound 137], the IC50 in the test with RBL-2H3 cells worked out at 45 nM; on Syk kinase, 28 nM.

Take `CN1CCOC(COc2nc(-c3ccc(C4CCN(S(C)(=O)=O)CC4)cc3)cc3nccnc23)C1=O` (stereo not shown) [Compound 315]: the IC50 with RBL-2H3 cells is 123 nM; at Syk kinase, 103 nM.

Consider `CC(=O)N1CCN(c2ccc(-c3cc4nccnc4c(OC[C@@H]4CN(S(C)(=O)=O)CCO4)n3)cc2)CC1` [Compound 122], for which the IC50 came to 73 nM in the test with RBL-2H3 cells and 15 nM against Syk kinase.

Turning to `CNC(=O)N1CCO[C@H](COc2nc(-c3ccc(C(C)C)cc3)cc3nccnc23)C1` [Compound 176], the IC50 was 67 nM in the test with RBL-2H3 cells and 59 nM against Syk kinase.

In the case of `CN(C)c1ccc(-c2cc3nccnc3c(OC[C@@H]3CN(C(=O)C4CC(F)(F)C4)CCO3)n2)cc1` [Compound 71], the IC50 with RBL-2H3 cells worked out at 335 nM; against Syk kinase, 127 nM.

For the molecule `CC(=O)N1CCO[C@H](COc2nc(-c3ccc(N(C)C(C)C)cc3)cc3nccnc23)C1` [Compound 144, (S)-1-(2-(((7-(4-(isopropyl(methyl)amino)phenyl)pyrido[3,4-b]pyrazin-5-yl)oxy)methyl)morpholino)ethanone], the concentration for half-maximal inhibition (IC50) was 80 nM in the test on RBL-2H3 cells and 57 nM against Syk kinase.

On to `NS(=O)(=O)N1CCO[C@H](COc2nc(-c3ccc(C4(O)CCC4)cc3)cc3nccnc23)C1` [Compound 312], for which the IC50 in the test on RBL-2H3 cells was 873 nM; against Syk kinase it was 69 nM.

As to `NS(=O)(=O)N1CCO[C@H](COc2nc(-c3ccc(N4CCC(F)(F)CC4)cc3)cc3nccnc23)C1` [Compound 29], the 50% inhibitory concentration (IC50) in the test with RBL-2H3 cells turned out to be 106 nM; at Syk kinase, 66 nM.

Take `CN1CCCc2cc(-c3cc4nccnc4c(OC[C@@H]4CN(S(N)(=O)=O)CCO4)n3)ccc21` [Compound 208]: the figures for the IC50 in the test with RBL-2H3 cells and at Syk kinase were 20 nM and 13 nM, respectively.

In the case of `CN(C)CCS(=O)(=O)N1CCO[C@H](COc2nc(-c3ccc(N4CCOCC4)cc3)cc3nccnc23)C1` [Compound 65], the IC50 with RBL-2H3 cells amounted to 181 nM; against Syk kinase, 53 nM.

In the case of `CC(C)(C#N)c1ccc(-c2cc3nccnc3c(OC[C@@H]3CN(C(N)=O)CCO3)n2)cc1` [Compound 252], the figures for the IC50 in the test on RBL-2H3 cells and on Syk kinase were 381 nM and 31 nM, respectively.

`C[C@@H]1CN(c2ccc(-c3cc4nccnc4c(OC[C@@H]4CN(S(C)(=O)=O)CCO4)n3)cc2)C[C@H](C)O1` [Compound 19]: the IC50 in the test with RBL-2H3 cells is 110 nM; at Syk kinase, 29 nM.

For the molecule `CN(C)c1ccc(-c2cc3nccnc3c(OC[C@@H]3CN(C(=O)C4CC4)CCO3)n2)cc1` [Compound 69], the IC50 in the test on RBL-2H3 cells came out at 62 nM; against Syk kinase, 39 nM.

Consider `CNC(=O)N1CCO[C@H](COc2nc(-c3ccc(N(C)C)c(F)c3)cc3nccnc23)C1` [Compound 184], for which the IC50 came out at 62 nM in the test on RBL-2H3 cells and 84 nM at Syk kinase.

As to `COc1cc(-c2cc3nccnc3c(OC[C@@H]3CN(S(C)(=O)=O)CCO3)n2)ccc1OCCN(C)C` [Compound 126], the figures for the concentration for half-maximal inhibition (IC50) with RBL-2H3 cells and on Syk kinase were 366 nM and 41 nM, respectively.

As to `NS(=O)(=O)N1CCO[C@H](COc2nc(-c3ccc(C4CCOCC4)cc3)cc3nccnc23)C1` [Compound 260], the half-maximal inhibitory concentration (IC50) with RBL-2H3 cells was 135 nM; on Syk kinase, 24 nM.

Regarding `CN(C)c1ccc(-c2cc3nccnc3c(OC[C@@H]3CN(S(C)(=O)=O)CCO3)n2)cn1` [Compound 218], the IC50 was determined as 27 nM with RBL-2H3 cells and 26 nM on Syk kinase.

In the case of `Cc1cc(-c2cc3nccnc3c(O[C@@H]3CCOC3)n2)ccc1N1CCOCC1` [Compound 192], the IC50 was 49 nM with RBL-2H3 cells and 30 nM against Syk kinase.

As for `CC(C)(O)C1CCN(c2ccc(-c3cc4nccnc4c(O[C@@H]4CCOC4)n3)cc2)CC1` [Compound 228], the IC50 amounted to 39 nM in the test on RBL-2H3 cells and 28 nM at Syk kinase.

As for `CCS(=O)(=O)N1CCO[C@H](COc2nc(-c3ccc(N(C)C)cc3)cc3nccnc23)C1` [Compound 88], the figures for the IC50 in the test on RBL-2H3 cells and at Syk kinase were 98 nM and 32 nM, respectively.

On to `CC1(C)OCc2cc(-c3cc4nccnc4c(OC[C@@H]4CN(C(N)=O)CCO4)n3)ccc21` [Compound 298], for which the half-inhibitory concentration (IC50) in the test with RBL-2H3 cells worked out at 191 nM; at Syk kinase, 28 nM.

With `CS(=O)(=O)N1CCO[C@H](COc2nc(-c3ccc(C4CCOCC4)cc3)cc3nccnc23)C1` [Compound 11], the half-maximal inhibitory concentration (IC50) stood at 48 nM with RBL-2H3 cells and 52 nM on Syk kinase.

As to `CN1CCN(c2ccc(-c3cc4nccnc4c(O[C@@H]4CCOC4)n3)cc2)CC1` [Compound 125], the IC50 in the test on RBL-2H3 cells was found to be 43 nM; against Syk kinase, 31 nM.

For `CC(C)(O)c1ccc(-c2cc3nccnc3c(OC[C@@H]3CN(S(N)(=O)=O)CCO3)n2)cc1` [Compound 263], the IC50 with RBL-2H3 cells stood at 400 nM; against Syk kinase it was 23 nM.

As for `CS(=O)(=O)N1CCO[C@H](COc2nc(-c3ccc(N4CCC(F)(F)CC4)cc3)cc3nccnc23)C1` [Compound 20], the IC50 amounted to 66 nM in the test with RBL-2H3 cells and 41 nM against Syk kinase.

On to `CN(C)c1ccc(-c2cc3nccnc3c(OC[C@@H]3CNC(=O)C3)n2)cc1` [Compound 206, (S)-4-(((7-(4-(dimethylamino)phenyl)pyrido[3,4-b]pyrazin-5-yl)oxy)methyl)pyrrolidin-2-one], for which the IC50 in the test on RBL-2H3 cells turned out to be 52 nM; against Syk kinase, 72 nM.

`NS(=O)(=O)N1CCO[C@H](COc2nc(-c3ccc(N4CCCCC4)cc3)cc3nccnc23)C1` [Compound 28]: the half-inhibitory concentration (IC50) in the test on RBL-2H3 cells came out at 142 nM; against Syk kinase, 40 nM.

Turning to `CN(C)c1ccc(-c2cc3nccnc3c(OC[C@@H]3CN(S(=O)(=O)CCN4CC[C@@H](O)C4)CCO3)n2)cc1` [Compound 102], the IC50 in the test on RBL-2H3 cells turned out to be 108 nM; against Syk kinase, 38 nM.

As to `NS(=O)(=O)N1CCO[C@H](COc2nc(-c3ccc(N4CCCC4)cc3)cc3nccnc23)C1` [Compound 30], the IC50 in the test on RBL-2H3 cells was 277 nM; against Syk kinase, 43 nM.

On to `CN(C)c1ccc(-c2cc3nccnc3c(OC[C@@H]3CN(C(=O)[C@@H]4CCOC4)CCO3)n2)cc1` [Compound 72], for which the IC50 was 188 nM in the test with RBL-2H3 cells and 109 nM on Syk kinase.
